The assay has as its target T1, human CB1 receptor (Homo sapiens, UniProt P21554).
T1 construct: expressed in transfected cells; membranes
The assay is described as follows: Cannabinoid Receptor-1 functional assay: inhibition of CP55940-induced [35S]GTPγS binding to membranes of CHO-K1 cells expressing human CB1. It counts as biochemical. As to conditions: 3 nM CP55940, hCB1 membranes, [35S]GTPγS SPA; read-out: IC50 value for antagonizing a CB1 receptor agonist. The text has this: Transfection and Cell Culture—The cDNA encoding the human CB1 (Cannabinoid Receptor-1) receptor (GenBank accession number NM_016083) was cloned from a human adipose tissue cDNA library and cloned into the eukaryotic expression vector pcDNA3.1 (Invitrogen).
Chinese Hamster Ovary cells (CHO-K1) stably expressing recombinant human CB1 were generated by transfecting the plasmid containing the coding sequence of the human CB1 receptor in CHO-K1 cells, using lipofectamin, according to the manufacturer instructions. Resistant clones were selected in the presence of 600 μg/ml G418 (Life technology). Stably transfected CHO-K1 cells were maintained in Ham's F-12 culture medium (Invitrogen), supplemented with 10% fetal calf serum (Invitrogen), 100 U/ml penicillin, 100 μg/ml streptomycin (Life Technology), and 600 μg/ml G418.
Cannabinoid Receptor-1 Functional Assay.
Functional activities of the above examples of compounds of the invention were assessed in vitro by measuring their ability to inhibit CP55940-induced [^35S]GTPγS binding to membranes prepared from CHO-K1 cells expressing the human CB1 receptor (described in Transfection and Cell Culture). CP55940 is a well known non-selective CB1 and CB2 receptor agonist (e.g Felder et al., 1995, Molecular Pharmacology, (48) 443-50). Membranes were prepared by a standard procedure. Briefly, cells were harvested using 10 mM EDTA and collected by centrifugation. Pelleted cells were homogenized in ice-cold 20 mM Hepes (pH 7.4),10 mM EDTA and protease inhibitors (Complete protease inhibitor cocktail tablet, Roche) using an Ultra Turrax Homogenizer. The homogenate was centrifuged at 14 000 rpm for 45 min. at 4° C. The resultant pellet was resuspended in the same buffer but with only 0.1 mM EDTA and was again centrifuged at 14 000 rpm for 45 min. at 4° C. The resulting pellet (membranes) was resuspended in 20 mM Hepes (pH 7.4), 0.1 mM EDTA, 2 mM MgCl2 and protease inhibitors and protein concentration was determined by Micro BCA Protein Assay Reagent Kit (Pierce Biotechnology) according to the manufacturer instructions. The [^35S]GYPγS SPA (Scintillation Proximity Assay) binding assay was performed by incubating 5 μg/well hCB1-membranes with 1 nM [^35S]GYPγS (Perkin Elmer—NEG 030H) in the presence of 3 nM of CP55940 and various concentrations of the test compounds at room temperature for 1 hr in 96-well microtiter plates. 0.4 mg/well SPA beads (PVT-WGA; RPNQ0001 Amersham Pharmacia Biotech) were then added and the incubation continued for further 30 min. on an orbital shaker. The assay buffer contained 50 mM HEPES (pH 7.5), 50 mM NaCl, 2.5 mM MgCl2, 0.1% BSA, 1 μM GDP and 100 μg/ml Saponin. Microtiter plates were centrifuged at 1500 rpm for 5 min. and radioactivity was read immediately using a Topcounter (PerkinElmer Life Sciences). Data were analyzed and IC50 values determined by non-linear regression using the Prism software (GraphPad Software, San Diego).
(In general: Binding of GTPγS marks nucleotide exchange on a G protein.)

Usually IC50 stands for the concentration at which inhibition is half-maximal.

SMILES strings stand for the structures.

T1 sequence (P21554 whole entry): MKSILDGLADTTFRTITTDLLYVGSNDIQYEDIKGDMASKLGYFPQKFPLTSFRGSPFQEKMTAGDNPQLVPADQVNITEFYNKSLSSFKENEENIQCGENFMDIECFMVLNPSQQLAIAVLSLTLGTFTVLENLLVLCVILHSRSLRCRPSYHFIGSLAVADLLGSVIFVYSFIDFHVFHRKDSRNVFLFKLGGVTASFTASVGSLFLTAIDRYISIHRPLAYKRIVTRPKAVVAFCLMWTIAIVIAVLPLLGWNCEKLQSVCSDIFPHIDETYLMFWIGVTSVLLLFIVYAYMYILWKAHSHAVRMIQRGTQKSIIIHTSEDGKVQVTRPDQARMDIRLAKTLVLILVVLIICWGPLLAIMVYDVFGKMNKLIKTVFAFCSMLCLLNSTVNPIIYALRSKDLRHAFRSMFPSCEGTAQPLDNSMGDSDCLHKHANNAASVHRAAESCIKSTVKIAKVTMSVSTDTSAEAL

As to `CC(c1ccc(S(C)(=O)=O)cc1)N(C)C(=O)c1nn(-c2ccccc2Cl)c(-c2ccc(Cl)cc2)c1CC(=O)O` (centres unmarked) [[1.8], (1-(2-Chloro-phenyl)-5-(4-chloro-phenyl)-3-{methyl-[1-(4-methylsufonyl-phenyl)-ethyl]-carbamoyl}-1H-pyrazol-4-yl)-acetic acid], the IC50 lay in the range of 300 to 3000 nM.
Consider `C[C@H](c1ccc(OC(F)(F)F)cc1)N(C)C(=O)c1nn(-c2ccccc2Cl)c(-c2ccc(Cl)cc2)c1CC(=O)O` [[1.9], (1-(2-Chloro-phenyl)-5-(4-chloro-phenyl)-3-{methyl-[(R)-1-(4-trifluoromethoxy-phenyl)-ethyl]-carbamoyl}-1H-pyrazol-4-yl)-acetic acid], for which the IC50 is under 300 nM.
Consider `CC(C)(Cc1ccccc1)NC(=O)c1nn(-c2ccccc2Cl)c(-c2ccc(Cl)cc2)c1Cc1nnn[nH]1` [[2.2], 1-(2-Chloro-phenyl)-5-(4-chloro-phenyl)-4-(1H-tetrazol-5-ylmethyl)-1H-pyrazole-3-carboxylic acid (1,1-dimethyl-2-phenyl-ethyl)-amide], for which the IC50 was under 300 nM.
With `C[C@@H](NC(=O)c1nn(-c2ccccc2Cl)c(-c2ccc(Cl)cc2)c1Cc1nn[nH]n1)c1ccc(Br)cc1` [[2.3], 1-(2-Chloro-phenyl)-5-(4-chloro-phenyl)-4-(1H-tetrazol-5-ylmethyl)-1H-pyrazole-3-carboxylic acid [(R)-1-(4-bromo-phenyl)-ethyl]-amide] the figure was under 300 nM; with `C[C@H](NC(=O)c1nn(-c2ccccc2Cl)c(-c2ccc(Cl)cc2)c1Cc1nnn[nH]1)c1ccc(Br)cc1` [[2.4], 1-(2-Chloro-phenyl)-5-(4-chloro-phenyl)-4-(1H-tetrazol-5-ylmethyl)-1H-pyrazole-3-carboxylic acid [(S)-1-(4-bromo-phenyl)-ethyl]-amide], 300 to 3000 nM.
As for `CC(C)(Cc1ccc(F)cc1)NC(=O)c1nn(-c2ccccc2Cl)c(-c2ccc(Cl)cc2)c1Cc1nn[nH]n1` [[2.5], 5-(4-Chloro-phenyl)-1-(2-chloro-phenyl)-4-(2H-tetrazol-5-ylmethyl)-1H-pyrazole-3-carboxylic acid [2-(4-fluoro-phenyl)-1,1-dimethyl-ethyl]-amide], the figure is under 300 nM; as for `C[C@@H](NC(=O)c1nn(-c2ccccc2Cl)c(-c2ccc(Cl)cc2)c1Cc1nn[nH]n1)c1ccc(C(F)(F)F)cc1` [[2.6], 5-(4-Chloro-phenyl)-1-(2-chloro-phenyl)-4-(2H-tetrazol-5-ylmethyl)-1H-pyrazole-3-carboxylic acid [(R)-1-(4-trifluoromethyl-phenyl)-ethyl]-amide], under 300 nM; as for `CC(C)(NC(=O)c1nn(-c2ccccc2Cl)c(-c2ccc(Cl)cc2)c1Cc1nnn[nH]1)c1ccc(F)cc1` [[2.7], 1-(2-Chloro-phenyl)-5-(4-chloro-phenyl)-4-(1H-tetrazol-5-ylmethyl)-1H-pyrazole-3-carboxylic acid [1-(4-fluoro-phenyl)-1-methyl-ethyl]-amide], 300 to 3000 nM.
As to `C[C@@H](NC(=O)c1nn(-c2ccccc2Cl)c(-c2ccc(Cl)cc2)c1Cc1nnn[nH]1)c1ccc(F)cc1` [[2.8], 1-(2-Chloro-phenyl)-5-(4-chloro-phenyl)-4-(1H-tetrazol-5-ylmethyl)-1H-pyrazole-3-carboxylic acid [(R)-1-(4-fluoro-phenyl)-ethyl]-amide], the IC50 is under 300 nM.
Consider `C[C@@H](NC(=O)c1nn(-c2ccccc2Cl)c(-c2ccc(Cl)cc2)c1Cc1nnn[nH]1)c1ccc(Cl)cc1` [[2.9], 1-(2-Chloro-phenyl)-5-(4-chloro-phenyl)-4-(1H-tetrazol-5-ylmethyl)-1H-pyrazole-3-carboxylic acid [(R)-1-(4-chloro-phenyl)-ethyl]-amide], for which the IC50 was under 300 nM.
Consider `CC(NC(=O)c1nn(-c2ccccc2Cl)c(-c2ccc(Cl)cc2)c1Cc1nnn[nH]1)c1ccc(C(F)(F)F)c(F)c1` (centres unmarked) [[2.10], 5-(4-Chloro-phenyl)-1-(2-chloro-phenyl)-4-(1H-tetrazol-5-ylmethyl)-1H-pyrazole-3-carboxylic acid [1-(3-fluoro-4-trifluoromethyl-phenyl)-ethyl]-amide], for which the IC50 is under 300 nM.
In the case of `CCC(NC(=O)c1nn(-c2ccccc2Cl)c(-c2ccc(Cl)cc2)c1Cc1nnn[nH]1)c1ccc(Br)cc1` (centres unmarked) [[2.11], 1-(2-Chloro-phenyl)-5-(4-chloro-phenyl)-4-(1H-tetrazol-5-ylmethyl)-1H-pyrazole-3-carboxylic acid [1-(4-bromo-phenyl)-propyl]-amide], the half-maximal inhibitory concentration (IC50) is under 300 nM.
Regarding `C[C@@H](NC(=O)c1nn(-c2ccccc2Cl)c(-c2ccc(Cl)cc2)c1Cc1nnn[nH]1)c1cccc(C(F)(F)F)c1` [[2.12], 1-(2-Chloro-phenyl)-5-(4-chloro-phenyl)-4-(1H-tetrazol-5-ylmethyl)-1H-pyrazole-3-carboxylic acid [(R)-1-(3-trifluoromethyl-phenyl)-ethyl]-amide], the IC50 was under 300 nM.
As for `CC(NC(=O)c1nn(-c2ccccc2Cl)c(-c2ccc(Cl)cc2)c1Cc1nnn[nH]1)c1ccc(Cl)c(Cl)c1` (centres unmarked) [[2.13], 1-(2-Chloro-phenyl)-5-(4-chloro-phenyl)-4-(1H-tetrazol-5-ylmethyl)-1H-pyrazole-3-carboxylic acid [1-(3,4-dichloro-phenyl)-ethyl]-amide], the IC50 is under 300 nM.
`C[C@H](c1ccc(C(F)(F)F)cc1)N(C)C(=O)c1nn(-c2ccccc2Cl)c(-c2ccc(Cl)cc2)c1Cc1nnn[nH]1` [[2.14], 1-(2-Chloro-phenyl)-5-(4-chloro-phenyl)-4-(1H-tetrazol-5-ylmethyl)-1H-pyrazole-3-carboxylic acid methyl-[(R)-1-(4-trifluoromethyl-phenyl)-ethyl]-amide]: the half-maximal inhibitory concentration (IC50) is under 300 nM.
As to `CCC(NC(=O)c1nn(-c2ccccc2Cl)c(-c2ccc(Cl)cc2)c1Cc1nnn[nH]1)c1ccc(C(F)(F)F)cc1` (centres unmarked) [[2.15], 1-(2-Chloro-phenyl)-5-(4-chloro-phenyl)-4-(1H-tetrazol-5-ylmethyl)-1H-pyrazole-3-carboxylic acid [1-(4-trifluoromethyl-phenyl)propyl]-amide], the half-inhibitory concentration (IC50) was under 300 nM.
As to `CC(NC(=O)c1nn(-c2ccccc2Cl)c(-c2ccc(Cl)cc2)c1Cc1nnn[nH]1)c1ccc(F)c(F)c1` (centres unmarked) [[2.16], 1-(2-Chloro-phenyl)-5-(4-chloro-phenyl)-4-(1H-tetrazol-5-ylmethyl)-1H-pyrazole-3-carboxylic acid [1-(3,4-difluoro-phenyl)-ethyl]-amide], the half-maximal inhibitory concentration (IC50) is under 300 nM.
For `C[C@@H](NC(=O)c1nn(-c2ccccc2Cl)c(-c2ccc(Cl)cc2)c1Cc1nnn[nH]1)c1cccc(F)c1` [[2.17], 1-(2-Chloro-phenyl)-5-(4-chloro-phenyl)-4-(1H-tetrazol-5-ylmethyl)-1H-pyrazole-3-carboxylic acid [(R)-1-(3-fluoro-phenyl)-ethyl]-amide], the IC50 was under 300 nM.
Regarding `CC(NC(=O)c1nn(-c2ccccc2Cl)c(-c2ccc(Cl)cc2)c1Cc1nnn[nH]1)c1cc(F)cc(F)c1` (centres unmarked) [[2.18], 1-(2-Chloro-phenyl)-5-(4-chloro-phenyl)-4-(1H-tetrazol-5-ylmethyl)-1H-pyrazole-3-carboxylic acid [1-(3,5-difluoro-phenyl)-ethyl]-amide], the IC50 was under 300 nM.
With `CC(NC(=O)c1nn(-c2ccccc2Cl)c(-c2ccc(Cl)cc2)c1Cc1nn[nH]n1)c1ccc(Cl)c(F)c1` (centres unmarked) [[2.19], 5-(4-Chloro-phenyl)-1-(2-chloro-phenyl)-4-(2H-tetrazol-5-ylmethyl)-1H-pyrazole-3-carboxylic acid [1-(4-chloro-3-fluoro-phenyl)-ethyl]-amide] the figure was under 300 nM.

(Values after US8124634B2, “CB1 receptor modulators” (7TM Pharma A/S, priority 2006, dated 2012).)
